In general, IC50 refers to the midpoint of a concentration-inhibition curve. One may read the melting point as the temperature of the solid-liquid transition.

Here are results for seven molecules from patent US20130102595A1 (Curis, Inc., priority 2011, published 2013).

Series [1] concerns HDACs (HeLa cell nuclear extracts). Kind of series: HDAC enzymatic activity, Biomol Color de Lys system. It counts as biochemical. Particulars: 1 hour, 25° C. In outline: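 HeLa nuclear extract incubated with serially diluted compound and […] artificial substrate in 50 mM Tris/Cl pH 8.0, 137 mM NaCl, 2.7 mM KCl, 1 mM MgCl2. Run 1 h at 25 °C, stopped with developer. Fluorescence read (ex 350-380, em 440-460 nm); IC50 from sigmoidal dose-response fit.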

For the next series, the target named is T1, PI3Kβ (p110β/p85α) (Homo sapiens, UniProt P42338).
T1 construct: His (N); made in house; host or cells: Baculovirus-infected Sf9 cells
Kind of series: PI3Kβ ADP-Glo assay. It counts as biochemical. Particulars: 20 μM PIP2, 10 μM ATP, 90 minutes. The protocol: (B) an In Vitro Assay which Determines the Ability of a Test Compound to Inhibit PI3Kβ.
Activity of PI3Kβ was measured using ADP-Glo assay from Promega. […], a complex of N-terminal His-tagged recombinant full-length human p110β (GenBank, Accession No. NM_006219) and untagged recombinant full length human p85α (GenBank Accession No. XM—043865) were co-expressed in a Baculovirus infected Sf9 cell expression system. The ADP-Glo assay was performed to measure the amount of ADP generated from ATP hydrolysis coupled with PIP2 phosphorylation by the purified recombinant PI3Kβ (p110β/p85α). PI3Kβ was incubated with 20 μM PIP2 substrate in the reaction buffer (10 mM Tris-HCl, pH 7.5, 50 mM NaCl, 5 mM MgCl2, 10 μM ATP and 0.5% DMSO) for 90 minutes at room temperature. The ADP generated was then detected by ADP-Glo assay from Promega, a luminescent ADP detection assay. The ADP-Glo assay is performed in two steps; first, after the kinase reaction, ADP-Glo Reagent is added to terminate the kinase reaction and deplete the remaining ATP. Second, the Kinase Detection Reagent is added to simultaneously convert ADP to ATP and allow the newly synthesized ATP to be measured using a luciferase/luciferin reaction.
Background: In ADP-Glo the light output rises with the ADP produced.

The next series concerns the target T2, PI3Kα (p110α/p85α) (Homo sapiens, UniProt P42336).
T2 construct: GST (N); made in house; host or cells: Baculovirus-infected Sf9 cells
Kind of series: PI3Kα ADP-Glo assay. It counts as biochemical. Particulars: 20 μM PIP2, 10 μM ATP, 30 minutes. In outline: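 Recombinant full-length human GST-p110α/His-p85α, co-expressed in Sf9 cells, was incubated 30 min at room temperature with 20 μM PIP2 and 10 μM ATP. The buffer was 50 mM HEPES pH 7.4, 150 mM NaCl, 5 mM MgCl2, 1 mM DTT, 3 µM orthovanadate and 0.5% DMSO. ADP formed was detected by ADP-Glo luminescence.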

In a further series the test system is Calu6. Kind of series: Cell proliferation assay (CellTiter-Glo). It counts as cell-based. Particulars: Homo sapiens, Calu-6; NSCLC; 72 hours, 0.5% fetal bovine serum; read-out: antiproliferative activity IC50, Calu6. The protocol:
(§1) Cell Proliferation Assay:
(§2) Cancer cell lines were plated at 5,000 to 10,000 per well in 96-well flat bottomed plates with various concentration of compounds. The cells were incubated with compounds for 72 hours in the presence of 0.5% of fetal bovine serum. Growth inhibition was accessed by adenosine triphosphate (ATP) content assay using Promega CellTiter-Glo kit. Promega CellTiter-Glo kit is an ATP monitoring system based on firefly luciferase. Briefly, 16 μl of mammalian cell lysis and substrate solution was added to 84 μl of culture medium per well to lyse the cells and stabilize the ATP. The mixture was shaken and incubated for 30 minutes and subsequently the luminescence was measured.

In the next series the test system is OPM-2. Kind of series: Cell proliferation assay (CellTiter-Glo). Particulars: Homo sapiens, Multiple Myeloma, 72 hours, 0.5% fetal bovine serum, read-out: antiproliferative activity IC50, OPM-2. It is filed as cell-based. As to the method:
as §1, §2
For orientation: Cellular ATP, detected with luciferase, serves as a proxy for viable cell number.

In a further series the test system is WiDr. Kind of series: Cell proliferation assay (CellTiter-Glo). It is filed as cell-based. As to conditions: Homo sapiens, Colon, 72 hours, 0.5% fetal bovine serum, read-out: antiproliferative activity IC50, WiDr. As to the method:
as §1, §2

Series [2] addresses T3, mTor serine/threonine protein kinase (Homo sapiens, UniProt P42345).
T3 construct: FLAG; made in house; host or cells: Baculovirus expression system in Sf21 cells
Kind of series: mTor kinase radioisotope assay. It counts as biochemical. As to conditions: 70 uM ATP, 40 minutes; read-out: m-TOR IC50. Put shortly:
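FLAG-tagged full-length recombinant human mTor from baculovirus/Sf21, incubated with p70S6K C-terminal fragment (2 mg/ml) and 70 uM ATP plus 33P-ATP tracer in 50 mM HEPES pH 7.5, 3 mM MnCl2, 40 min at room temperature. Phosphoric acid stop, filtermat capture, scintillation counting; IC50 from sigmoidal dose-response fit.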

A further series concerns A549. Kind of series: Cell proliferation assay (CellTiter-Glo). It is filed as cell-based. As to conditions: Homo sapiens, NSCLC, 72 hours, 0.5% fetal bovine serum, read-out: antiproliferative activity IC50, A549. As to the method:
as §1, §2

The test system of another series is H358. Kind of series: Cell proliferation assay (CellTiter-Glo). It counts as cell-based. Particulars: Homo sapiens, NCI-H358; NSCLC; 72 hours, 0.5% fetal bovine serum; read-out: antiproliferative activity IC50, H358. As to the method: as §1, §2
For the next series, the system named is HCT116. Kind of series: Cell proliferation assay (CellTiter-Glo). It is filed as cell-based. As to conditions: Homo sapiens, HCT-116; Colon; 72 hours, 0.5% fetal bovine serum; read-out: antiproliferative activity IC50, HCT116. As to the method:
as §1, §2

A further series relates to H292. Kind of series: Cell proliferation assay (CellTiter-Glo). Particulars: Homo sapiens, NCI-H292; NSCLC; 72 hours, 0.5% fetal bovine serum; read-out: antiproliferative activity IC50, H292. It is filed as cell-based. The protocol:
as §1, §2

In the next series the test system is H460. Kind of series: Cell proliferation assay (CellTiter-Glo). As to conditions: Homo sapiens, NCI-H460; NSCLC; 72 hours, 0.5% fetal bovine serum; read-out: antiproliferative activity IC50, H460. It is filed as cell-based. As to the method:
as §1, §2

For the next series, the system named is MiaPaca1. Kind of series: Cell proliferation assay (CellTiter-Glo). As to conditions: Pancreas; 72 hours, 0.5% fetal bovine serum; read-out: antiproliferative activity IC50, MiaPaca1. It is filed as cell-based. The protocol:
as §1, §2

Another series concerns H2122. Kind of series: Cell proliferation assay (CellTiter-Glo). As to conditions: Homo sapiens, NCI-H2122; NSCLC; 72 hours, 0.5% fetal bovine serum; read-out: antiproliferative activity IC50, H2122. It is filed as cell-based. The protocol: as §1, §2

Some results are limits rather than exact numbers.

T2 sequence (P42336 whole entry): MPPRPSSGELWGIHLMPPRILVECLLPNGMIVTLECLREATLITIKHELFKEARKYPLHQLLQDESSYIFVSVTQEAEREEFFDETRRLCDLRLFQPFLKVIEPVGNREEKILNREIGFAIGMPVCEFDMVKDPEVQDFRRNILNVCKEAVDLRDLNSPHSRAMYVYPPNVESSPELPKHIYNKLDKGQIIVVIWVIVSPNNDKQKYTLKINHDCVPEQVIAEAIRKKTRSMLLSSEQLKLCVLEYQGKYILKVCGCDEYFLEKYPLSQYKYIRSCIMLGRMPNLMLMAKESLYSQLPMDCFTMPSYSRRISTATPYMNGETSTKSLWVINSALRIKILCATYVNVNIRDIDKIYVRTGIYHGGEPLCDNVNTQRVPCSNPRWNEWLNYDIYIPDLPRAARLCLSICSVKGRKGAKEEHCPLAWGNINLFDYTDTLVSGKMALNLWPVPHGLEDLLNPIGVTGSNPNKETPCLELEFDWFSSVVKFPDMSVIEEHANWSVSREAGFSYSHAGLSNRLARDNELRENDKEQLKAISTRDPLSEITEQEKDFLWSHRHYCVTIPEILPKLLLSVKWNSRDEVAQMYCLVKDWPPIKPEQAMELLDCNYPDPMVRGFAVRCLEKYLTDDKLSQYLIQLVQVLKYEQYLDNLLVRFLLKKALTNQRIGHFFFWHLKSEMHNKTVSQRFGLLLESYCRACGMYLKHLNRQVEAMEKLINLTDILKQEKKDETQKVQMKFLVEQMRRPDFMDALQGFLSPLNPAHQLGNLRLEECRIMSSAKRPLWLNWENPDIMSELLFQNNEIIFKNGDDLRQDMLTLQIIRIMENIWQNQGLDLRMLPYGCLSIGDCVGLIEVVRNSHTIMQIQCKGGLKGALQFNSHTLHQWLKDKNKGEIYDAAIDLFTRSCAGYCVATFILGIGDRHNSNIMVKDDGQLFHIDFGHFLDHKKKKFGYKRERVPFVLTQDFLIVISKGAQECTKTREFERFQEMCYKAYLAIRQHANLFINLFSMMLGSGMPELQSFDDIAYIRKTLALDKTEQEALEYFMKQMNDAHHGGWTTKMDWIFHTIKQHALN
T2 sequence (P27986 whole entry partner): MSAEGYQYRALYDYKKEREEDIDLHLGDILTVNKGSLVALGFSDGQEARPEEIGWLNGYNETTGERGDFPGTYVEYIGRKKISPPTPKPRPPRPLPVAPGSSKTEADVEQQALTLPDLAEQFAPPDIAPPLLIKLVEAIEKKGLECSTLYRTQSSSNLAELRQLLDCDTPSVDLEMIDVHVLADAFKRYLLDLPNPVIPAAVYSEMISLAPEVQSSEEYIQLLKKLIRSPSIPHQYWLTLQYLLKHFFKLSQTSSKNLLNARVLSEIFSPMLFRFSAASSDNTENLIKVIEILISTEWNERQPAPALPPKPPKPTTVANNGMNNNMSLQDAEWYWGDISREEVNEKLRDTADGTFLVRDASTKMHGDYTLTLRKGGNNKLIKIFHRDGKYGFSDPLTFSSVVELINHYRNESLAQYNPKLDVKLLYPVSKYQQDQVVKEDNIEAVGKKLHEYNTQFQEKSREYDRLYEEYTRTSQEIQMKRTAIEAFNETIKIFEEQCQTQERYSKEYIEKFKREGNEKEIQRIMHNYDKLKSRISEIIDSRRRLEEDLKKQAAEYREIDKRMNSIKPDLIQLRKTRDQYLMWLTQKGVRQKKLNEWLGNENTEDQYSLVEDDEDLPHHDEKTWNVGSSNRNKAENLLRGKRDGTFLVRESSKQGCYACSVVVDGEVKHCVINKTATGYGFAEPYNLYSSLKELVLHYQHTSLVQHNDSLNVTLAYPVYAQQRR
T1 sequence (P42338 whole entry): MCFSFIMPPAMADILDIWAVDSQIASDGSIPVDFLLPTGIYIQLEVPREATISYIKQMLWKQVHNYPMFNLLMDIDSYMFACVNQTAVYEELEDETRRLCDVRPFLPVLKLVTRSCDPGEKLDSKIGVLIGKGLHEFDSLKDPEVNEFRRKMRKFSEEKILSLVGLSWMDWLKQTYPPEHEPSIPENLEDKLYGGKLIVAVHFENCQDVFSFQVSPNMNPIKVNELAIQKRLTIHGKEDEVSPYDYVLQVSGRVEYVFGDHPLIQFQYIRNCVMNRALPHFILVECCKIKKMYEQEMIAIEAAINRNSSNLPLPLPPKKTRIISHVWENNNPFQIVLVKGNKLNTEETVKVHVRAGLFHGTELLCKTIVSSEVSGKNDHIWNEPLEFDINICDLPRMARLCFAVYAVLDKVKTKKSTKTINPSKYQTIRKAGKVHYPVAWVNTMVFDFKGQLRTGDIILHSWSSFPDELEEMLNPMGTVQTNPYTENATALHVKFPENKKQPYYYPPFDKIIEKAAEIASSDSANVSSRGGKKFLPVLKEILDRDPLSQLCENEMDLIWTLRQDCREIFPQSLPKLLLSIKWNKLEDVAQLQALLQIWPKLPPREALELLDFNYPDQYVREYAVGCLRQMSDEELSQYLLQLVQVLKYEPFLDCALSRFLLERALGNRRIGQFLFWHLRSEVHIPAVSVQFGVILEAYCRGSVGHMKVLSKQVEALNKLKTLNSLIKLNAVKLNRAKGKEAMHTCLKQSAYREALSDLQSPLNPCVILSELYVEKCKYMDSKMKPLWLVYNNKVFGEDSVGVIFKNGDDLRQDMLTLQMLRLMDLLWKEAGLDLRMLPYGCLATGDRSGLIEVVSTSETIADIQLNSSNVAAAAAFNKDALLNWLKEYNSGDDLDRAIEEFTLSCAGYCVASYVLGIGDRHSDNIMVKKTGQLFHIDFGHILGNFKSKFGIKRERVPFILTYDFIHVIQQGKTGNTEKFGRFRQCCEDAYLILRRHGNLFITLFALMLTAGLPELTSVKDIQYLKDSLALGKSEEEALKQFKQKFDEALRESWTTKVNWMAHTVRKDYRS
T1 sequence (P27986 whole entry partner): as the sequence (P27986 whole entry partner) above

In the case of `O=C(NO)c1cnc(N(CCO)Cc2cc3nc(-c4cccc5[nH]ncc45)nc(N4CCOCC4)c3s2)nc1` [Compound 86, 2-(((2-(1H-indazol-4-yl)-4-morpholinothieno[3,2-d]pyrimidin-6-yl)methyl)(2-hydroxyethyl)amino)-N-hydroxypyrimidine-5-carboxamide], the melting point was 190 to 194 °C. The molecule also had a concentration for half-maximal inhibition (IC50) in series [1] of under 100 nM. This molecule came in with an IC50 at PI3Kβ (p110β/p85α) of under 100 nM. For the same molecule, the IC50 on PI3Kα (p110α/p85α) was under 100 nM.
For the molecule `CN(Cc1cc2nc(-c3ccc(N)nc3)nc(N3CCOCC3)c2s1)c1ncc(C(=O)NO)cn1` [Compound 110, 2-(((2-(6-aminopyridin-3-yl)-4-morpholinothieno[3,2-d]pyrimidin-6-yl)methyl)(methyl)amino)-N-hydroxypyrimidine-5-carboxamide], the melting point was in the range of 175 to 181 °C. In [1], this molecule gave an IC50 of under 100 nM. The IC50 in the series on Calu6 is 10 to 100 nM. Moreover, the IC50 in the series with OPM-2 is under 10 nM. Also, in the series with WiDr, the half-maximal inhibitory concentration (IC50) fell in the range of 10 to 100 nM. The IC50 in series [2] is under 100 nM. Also, the 50% inhibitory concentration (IC50) against PI3Kα (p110α/p85α) was under 100 nM.
Consider `CN(Cc1cc2nc(-c3cnc(N)nc3)nc(N3CCOCC3)c2s1)c1ncc(C(=O)NO)cn1` [Compound 115, 2-(((2-(2-aminopyrimidin-5-yl)-4-morpholinothieno[3,2-d]pyrimidin-6-yl)methyl)(methyl)amino)-N-hydroxypyrimidine-5-carboxamide], for which the melting point lay in the range of 175 to 181 °C. Also, in series [1], the half-inhibitory concentration (IC50) is under 100 nM. The half-inhibitory concentration (IC50) in the series with Calu6 fell in the range of 10 to 100 nM. Also, the IC50 with A549 lay in the range of 10 to 100 nM. Besides, the IC50 with OPM-2 lay within 10 to 100 nM. Also, the IC50 with WiDr is 100 to 1000 nM. For the same molecule, the half-maximal inhibitory concentration (IC50) in series [2] was under 100 nM. Besides, on PI3Kα (p110α/p85α), the concentration for half-maximal inhibition (IC50) is under 100 nM.
On to `CN(Cc1cc2nc(-c3cccc(OCCO)c3)nc(N3CCOCC3)c2s1)c1ncc(C(=O)NO)cn1` [Compound 289, 2-({2-[3-(2-Hydroxy-ethoxy)-phenyl]-4-morpholin-4-yl-thieno[3,2-d]pyrimidin-6-ylmethyl}-methyl-amino)-pyrimidine-5-carboxylic acid hydroxyamide], for which the melting point fell in the range of 148 to 152 °C. Further, the IC50 in series [1] was under 100 nM. Further, in the series on H358, the IC50 was under 10 nM. For the same molecule, in the series on HCT116, the IC50 was under 10 nM. In addition, in the series with H292, the 50% inhibitory concentration (IC50) is under 10 nM. In the series on A549, the IC50 lay in the range of 10 to 100 nM. Further, in the series on H460, the IC50 is 10 to 100 nM. In the series with MiaPaca1, the concentration for half-maximal inhibition (IC50) is under 10 nM. In addition, in the series with WiDr, the IC50 is under 10 nM. Also, in the series on H2122, the IC50 was under 10 nM. For the same molecule, the IC50 on PI3Kα (p110α/p85α) is under 100 nM.
On to `CC(O)c1cccc(-c2nc(N3CCOCC3)c3sc(CN(C)c4ncc(C(=O)NO)cn4)cc3n2)c1` (centres unmarked) [Compound 294, N-Hydroxy-2-(((2-(3-(1-hydroxyethyl)phenyl)-4-morpholinothieno[3,2-d]pyrimidin-6-yl)methyl)(methyl)amino)pyrimidine-5-carboxamide], for which the IC50 is under 100 nM in series [1]; under 10 nM with H358; under 10 nM in the series on HCT116; 10 to 100 nM in the series on H292; 10 to 100 nM in the series on A549; 10 to 100 nM in the series on H460. The IC50 was under 10 nM in the series on MiaPaca1; 10 to 100 nM in the series on WiDr; under 10 nM in the series on H2122; 100 to 1000 nM in series [2]; under 100 nM on PI3Kα (p110α/p85α).
Take `C[C@H](O)c1cccc(-c2nc(N3CCOCC3)c3sc(CN(C)c4ncc(C(=O)NO)cn4)cc3n2)c1` [Compound 296, (S)—N-Hydroxy-2-(((2-(3-(1-hydroxyethyl)phenyl)-4-morpholinothieno[3,2-d]pyrimidin-6-yl)methyl)(methyl)amino)pyrimidine-5-carboxamide]: the melting point lay in the range of 168 to 172 °C. The IC50 in series [1] was under 100 nM. In the series with H358, the half-maximal inhibitory concentration (IC50) was 10 to 100 nM. Further, the IC50 in the series with Calu6 was in the range of 10 to 100 nM. In the series on HCT116, the IC50 was under 10 nM. Also, the IC50 in the series with H292 was in the range of 10 to 100 nM. In the series on A549, the IC50 fell in the range of 10 to 100 nM. Further, the IC50 in the series with H460 fell in the range of 10 to 100 nM. Further, in the series on MiaPaca1, the half-maximal inhibitory concentration (IC50) fell in the range of 10 to 100 nM. Further, in the series with WiDr, the IC50 was under 10 nM. The IC50 in the series with H2122 was in the range of 10 to 100 nM. The concentration for half-maximal inhibition (IC50) in series [2] is over 10000 nM. Moreover, the IC50 against PI3Kα (p110α/p85α) fell in the range of 100 to 1000 nM.
`CNc1ccc(-c2nc(N3CCOCC3)c3sc(C(=O)NCC4CCN(c5ncc(C(=O)NO)cn5)CC4)cc3n2)cn1` [Compound 308, N-((1-(5-(Hydroxycarbamoyl)pyrimidin-2-yl)piperidin-4-yl)methyl)-2-(6-(methylamino)pyridin-3-yl)-4-morpholinothieno[3,2-d]pyrimidine-6-carboxamide] gave a melting point of 215 to 218 °C. The molecule further registered an IC50 in series [1] of under 100 nM. The IC50 with H358 was 100 to 1000 nM. Besides, the IC50 in the series on HCT116 fell in the range of 100 to 1000 nM. Besides, the IC50 with H292 is 100 to 1000 nM. The half-inhibitory concentration (IC50) with A549 fell in the range of 100 to 1000 nM. Moreover, in the series with H460, the 50% inhibitory concentration (IC50) lay within 100 to 1000 nM. Further, in the series with MiaPaca1, the IC50 lay within 100 to 1000 nM. The concentration for half-maximal inhibition (IC50) in the series with WiDr is 100 to 1000 nM. The half-maximal inhibitory concentration (IC50) in the series on H2122 fell in the range of 100 to 1000 nM. The 50% inhibitory concentration (IC50) at PI3Kα (p110α/p85α) was under 100 nM.
